Experimental data: patent US9540649B2, “Method for opening tight junctions” (The Provost, Fellows and Scholars of the College of the …, priority 2007, dated 2017)
“Also recorded” adds a separate entry of the source.

Columns and labels:
iBRB = assay: MRI analysis of Gd-DTPA diffusion across the iBRB (eye); format: in vivo, mice; settings: 48 hours post-injection
[1] = MRI blood flow/volume (mean transit time, capillary transit time) in brain after claudin-5 siRNA; format: in vivo, mice; settings: 24 and 48 hours post-high volume tail vein injection; up to 8 animals per group
Description: 48 hours post-delivery of siRNA targeting claudin-5 or a non-targeting siRNA, a solution containing Gd-DTPA injected to the claudin-5 suppressed mice. Gd-DTPA was injected in the tail vein to assess whether Gd-TPA would permeate across the BBB. Following injection of siRNA and using appropriate controls, BBB integrity to a molecule of 742 Daltons (Gd-DTPA) was assessed via MRI, using a dedicated small rodent Bruker BioSpec 70/30 (i.e. 7 T, 30 cm bore) with an actively shielded USR Magnet. Mice were anaesthetised with isofluorane, and physiologically monitored (ECG, respiration and temperature) and placed on an MRI-compatible support cradle, which has a built-in system for maintaining the animal's body temperature at 37° C. The cradle was then positioned within the MRI scanner. Accurate positioning is ensured by acquiring an initial rapid pilot image, which is then used to ensure the correct geometry is scanned in all subsequent MRI experiments. […] Statistical analysis of all densitometric results of combined regions of the Cerebellum, Hippocampus and Cortex was performed using ANOVA, with significance represented by a P value of ≦0.05, and results are presented both graphically and in a quantitative image depicting the rate of Gd-DTPA deposition within the brain. […]
This is calculated from the first moment or mean of the curve. […]

claudin-5 = assay: Immunohistochemical analysis of claudin-5 expression and localisation in brain microvessels; format: in vivo, C57/Bl6 mice
Description: Rapid high pressure, high volume tail vein injections were carried out (Kiang et al., 2005). Wild type C57/Bl6 mice of weight 20-30 g were individually restrained inside a 60-ml volume plastic tube. The protruding tail was warmed for 5 minutes prior to injection under a 60-W lamp and the tail vein clearly visualized by illumination from below. 20 micrograms of targeting siRNA, or non-targeting siRNA made up with PBS to a volume in mls of 10% of the body weight in grams or PBS alone, was injected into the tail vein at a rate of 1 ml/sec using a 26-gauge (26 G 3/8) needle. After 24, 48, 72 hours and 1 week, protein was isolated from total brain tissue by crushing brains to a fine powder in liquid N2 and subsequently using lysis buffer containing 62.5 mM Tris, 2% SDS, 10 mM Dithiothreitol, 10 μl protease inhibitor cocktail/100 ml (Sigma Aldrich, Ireland). The homogenate was centrifuged at 10,000 g for 20 mins @4° C., and the supernatant was removed for claudin-5 analysis.
Brain cryosections were blocked with 5% Normal Goat Serum (NGS) in PBS for 20 mins at room temperature. Primary antibody (Rabbit anti-Claudin-5, Zymed, California) was incubated on sections overnight at 4° C. […] A secondary rabbit IgG-Cy3 antibody was incubated with the sections at 37° C. for 2 hours followed by 3 washes with PBS. All sections were counterstained with DAPI for 30 seconds at a dilution of 1:5000 of a stock 1 mg/ml solution. Analysis of stained sections was performed with an Olympus FluoView™ FV1000 Confocal microscope.

[2] = test system: endothelial cells of heart, liver, lung and kidney; assay: Endothelial cell morphology of major organs (Griffonia simplicifolia-isolectin B4 staining); format: in vivo, mouse; settings: all time points; vs control groups
Description: Following hydrodynamic injection of siRNA targeting claudin-5, cryosections were prepared of all the major organs, the heart, liver, lung and kidney. Sections were incubated overnight at 4° C. with HRP-conjugated Griffonia simplicifolia-isolectin B4 in order to stain the endothelial cells of organs.

BBB [3] = assay: Assessment of BBB integrity by perfusion of biotinylated tracer EZ-Link Sulfo-NHS-Biotin (443 Da); format: in vivo, C57/Bl6 mice
Description: Following RNAi-mediated ablation of transcripts encoding claudin-5, a tracer molecule was used to determine the extent to which the TJ's of the BBB had been affected. The biotinylated reagent EZ-Link™ Sulfo-NHS-Biotin (Pierce) (1 ml/g body weight of 2 mg/ml EZ-Link™ Sulfo-NHS-Biotin, 443 Da) was perfused for 5 minutes through the left ventricle of mice 24, 48, 72 hours and 1 week post-hydrodynamic delivery of claudin-5 siRNA. Following perfusion with the tracer molecule, the whole brain was dissected and placed in 4% PFA pH 7.4 overnight at 4° C. and subsequently washed 4×15 mins with PBS. Following cryoprotection with sucrose, frozen sections were cut on a cryostat at −20° C. and incubated with streptavidin conjugated to the fluorescent probe FITC. This allowed for the assessment of leakage of the biotinylated reagent of molecular weight 443 Da from the microvessels of the brain. All sections were counterstained with 4′,6-diamidine-2-phenylindole-dihydrochloride (DAPI; Sigma Aldrich, Ireland) for 30 seconds at a dilution of 1:5000 of a stock 1 mg/ml solution, and sections were visualized using an Olympus FluoView™ FV1000 Confocal microscope.

BBB [4] = assay: BBB permeability to Hoechst H33342 (562 Da) and FD-4 (4,400 Da) co-perfusion, brain sections; format: in vivo, C57/Bl6 mice; settings: for extravasation of FD-4 (4,400 Da) into brain parenchyma: any time point following siRNA injection
Description: In order to determine the permeability of brain and retinal microvessels to a molecule of 562 Daltons, mice were perfused through the left ventricle with 500 μl/g body weight of PBS containing 100 μg/ml Hoechst stain H33342 (Sigma Aldrich, Ireland) and 1 mg/ml FITC-Dextran-4 (FD-4) 24, 48, 72 hours and 1 week post-hydrodynamic delivery of claudin-5 siRNA. Following perfusion, the whole brain was dissected and placed in 4% PFA pH 7.4 overnight at 4° C. and subsequently washed 4×15 mins with PBS. Brains were then embedded in 4% agarose and 50 μm sections were cut using a Vibratome®. Whole eyes were removed and fixed with 4% PFA, and following washing with PBS and cryoprotection using a sucrose gradient, 12 μm cryosections were cut using a cryostat. Following analysis of retinal cryosections with an Olympus FluoView™ FV1000 Confocal microscope, images were oriented correctly using Adobe® Photoshop®.

[5] = listed as siRNA targeting claudin-5

## claudin-5 siRNA: siRNA, sense CGUUGGAAAUUCUGGGUCUUU (SEQ ID NO: 1), antisense AGACCCAGAAUUUCCAACGUU (SEQ ID NO: 2) (listed as RNA, chemistry not given here)
iBRB
  Gd-DTPA contrasting in the eye / iBRB integrity, MRI: Strong contrasting
iBRB; [5]
  Gd-DTPA contrasting in the eye / iBRB integrity, MRI: iBRB was compromised
[1]
  blood flow / blood volume in major brain vessels and capillaries (MTT, CTT), MRI: no significant differences in blood flow; also recorded: not observing any difference in blood flow or blood volume
claudin-5; 24 hours post delivery
  claudin-5 staining pattern in brain microvessels, immunohistochemistry: decreased and non-continuous; also recorded: less intense
claudin-5; 48 hours post injection
  claudin-5 staining pattern in brain microvessels, immunohistochemistry: striking decrease in expression; also recorded: marked decrease; also recorded: dramatically reduced
claudin-5; 48 hours post injection, listed as siRNA targeting claudin-5
  claudin-5 staining pattern in brain microvessels, immunohistochemistry: highly fragmented and discontinuous
claudin-5; 72 hours post-injection
  claudin-5 staining pattern in brain microvessels, immunohistochemistry: evident, yet non-continuous; also recorded: evident, yet not as intense as the control groups; also recorded: still attenuated
[2]
  endothelial cell morphology in liver, lung, kidney and heart: appeared similar at all time points and in all major organs
BBB [3]; 1 week post-injection
  BBB permeability to EZ-Link Sulfo-NHS-Biotin (443 Da): no evidence for BBB compromise; also recorded: failed to deposit in the parenchyma; also recorded: did not allow for the passage; also recorded: no longer crossed the BBB
BBB [3]; 1 week post-injection, listed as siRNA targeting claudin-5
  BBB permeability to EZ-Link Sulfo-NHS-Biotin (443 Da): did not deposit in the parenchyma
BBB [3]; 24 hours post-injection, perfusion 5 minutes, listed as siRNA targeting claudin-5
  BBB permeability to EZ-Link Sulfo-NHS-Biotin (443 Da): diffuse and outside of the microvessels; also recorded: increase in permeability; also recorded: infiltration of the molecule into the parenchyma of the brain
BBB [3]; 48 hours post-injection
  BBB permeability to EZ-Link Sulfo-NHS-Biotin (443 Da): abundant in the brain parenchyma
BBB [3]; 48 hours post-injection, listed as siRNA targeting claudin-5
  BBB permeability to EZ-Link Sulfo-NHS-Biotin (443 Da): very distinct; also recorded: detected in abundance
BBB [3]; 72 hours post-delivery
  BBB permeability to EZ-Link Sulfo-NHS-Biotin (443 Da): permeability was still evident; also recorded: still evidenced
BBB [3]; 72 hours post-delivery, listed as siRNA targeting claudin-5
  BBB permeability to EZ-Link Sulfo-NHS-Biotin (443 Da): significant compromise in barrier function; also recorded: crossed the BBB
BBB [4]; 24 hours and 48 hours post delivery
  extravasation of Hoechst H33342 (562 Da) from brain microvessels: distinct staining of nuclei in surrounding neural and glial cells
BBB [4]; 24 hours and 48 hours post delivery, listed as siRNA targeting claudin-5
  extravasation of Hoechst H33342 (562 Da) from brain microvessels: extravasation of Hoechsct was observed; also recorded: crossed the BBB
BBB [4]; 72 hours or 1 week post-injection
  extravasation of Hoechst H33342 (562 Da) from brain microvessels: not evident
BBB [4]
  extravasation of FD-4 (4,400 Da) into brain parenchyma: No extravasation of FD-4
BBB [4]; [5]
  extravasation of FD-4 (4,400 Da) into brain parenchyma: no extravasation was evident; also recorded: failed to do so
